Measurements: patent publication US11213030B2, “4-(3,4-dihydronaphth-1-yl or 2H-chromen-4-yl)-5-hydroxy-2H-pyradizin-3-ones as herbicides” (FMC Corporation, priority 2017, dated 2022)

What was measured:
Assay type in all cases: in vivo
kochia (Kochia scoparia) [1] = test: Test A preemergence, kochia; details: 0 to 100 scale
Text: (§1) Seeds of plant species selected from barnyardgrass (Echinochloa crus-galli), kochia (Kochia scoparia), ragweed (common ragweed, Ambrosia elatior), ryegrass, It. (Italian ryegrass, Lolium multiflorum), foxtail, green (green foxtail, Setaria viridis), and pigweed (Amaranthus retroflexus) were planted into a blend of loam soil and sand and treated preemergence with a directed soil spray using test chemicals formulated in a non-phytotoxic solvent mixture which included a surfactant. At the same time, plants selected from these weed species and also wheat (Triticum aestivum), corn (Zea mays), blackgrass (Alopecurus myosuroides), and galium (catchweed bedstraw, Galium aparine) were planted in pots containing the same blend of loam soil and sand and treated with postemergence applications of test chemicals formulated in the same manner. Plants ranged in height from 2 to 10 cm and were in the one- to two-leaf stage for the postemergence treatment. Treated plants and untreated controls were maintained in a greenhouse for approximately 10 d, after which time all treated plants were compared to untreated controls and visually evaluated for injury. Plant response ratings, summarized in Table A, are based on a 0 to 100 scale where 0 is no effect and 100 is complete control. A dash (-) response means no test result.

[2] = tested on: barnyardgrass (Echinochloa crus-galli); test: Test B flooded paddy test, barnyardgrass; details: Flood, 250 g ai/ha applied to paddy water, 2-leaf stage, 13 to 15 d; scale of 0 to 100 where 0 is no effect and 100 is complete control
Procedure: (§2) Plant species in the flooded paddy test selected from rice (Oryza sativa), sedge, umbrella (small-flower umbrella sedge, Cyperus difformis), ducksalad (Heteranthera limosa), and barnyardgrass (Echinochloa crus-galli) were grown to the 2-leaf stage for testing. At the time of treatment, test pots were flooded to 3 cm above the soil surface, treated by application of test compounds directly to the paddy water, and then maintained at that water depth for the duration of the test. Treated plants and controls were maintained in a greenhouse for 13 to 15 d, after which time all species were compared to controls and visually evaluated. Plant response ratings, summarized in Table B, are based on a scale of 0 to 100 where 0 is no effect and 100 is complete control. A dash (-) response means no test result.

[3] = tested on: ducksalad (Heteranthera limosa); test: Test B flooded paddy test, ducksalad; details: Flood, 250 g ai/ha applied to paddy water, 2-leaf stage, 13 to 15 d; scale of 0 to 100 where 0 is no effect and 100 is complete control
Procedure: as §2

[4] = tested on: barnyardgrass (Echinochloa crus-galli); test: Test A postemergence, barnyardgrass; details: 0 to 100 scale
Text: as §1

[5] = tested on: wheat (Triticum aestivum); test: Test A postemergence, wheat; details: 0 to 100 scale
Text: as §1

[6] = tested on: foxtail, green (green foxtail, Setaria viridis); test: Test A preemergence, green foxtail; details: 0 to 100 scale
Text: as §1

[7] = tested on: ryegrass, It. (Italian ryegrass, Lolium multiflorum); test: Test A postemergence, Italian ryegrass; details: 0 to 100 scale; for Plant response rating, Ryegrass, Italian: 500 g ai/ha
Text: as §1

kochia (Kochia scoparia) [8] = test: Test A postemergence, kochia; details: 0 to 100 scale
Text: as §1

[9] = tested on: pigweed (Amaranthus retroflexus); test: Test A postemergence, pigweed; details: 0 to 100 scale
Text: as §1

[10] = tested on: blackgrass (Alopecurus myosuroides); test: Test A postemergence, blackgrass; details: 0 to 100 scale
Text: as §1

corn (Zea mays) = test: Test A postemergence, corn; details: 0 to 100 scale
Text: as §1

[11] = tested on: pigweed (Amaranthus retroflexus); test: Test A preemergence, pigweed; details: 0 to 100 scale
Text: as §1

[12] = tested on: ragweed (common ragweed, Ambrosia elatior); test: Test A postemergence, ragweed; details: 0 to 100 scale
Text: as §1

rice (Oryza sativa) = test: Test B flooded paddy test, rice; details: Flood, 250 g ai/ha applied to paddy water, 2-leaf stage, 13 to 15 d; scale of 0 to 100 where 0 is no effect and 100 is complete control
Procedure: as §2

[13] = tested on: ryegrass, It. (Italian ryegrass, Lolium multiflorum); test: Test A preemergence, Italian ryegrass; details: 0 to 100 scale
Text: as §1

[14] = tested on: galium (catchweed bedstraw, Galium aparine); test: Test A postemergence, galium; details: 0 to 100 scale
Text: as §1

[15] = tested on: ragweed (common ragweed, Ambrosia elatior); test: Test A preemergence, ragweed; details: 0 to 100 scale
Text: as §1

[16] = tested on: sedge, umbrella (small-flower umbrella sedge, Cyperus difformis); test: Test B flooded paddy test, umbrella sedge; details: Flood, 250 g ai/ha applied to paddy water, 2-leaf stage, 13 to 15 d; scale of 0 to 100 where 0 is no effect and 100 is complete control
Procedure: as §2

[17] = tested on: foxtail, green (green foxtail, Setaria viridis); test: Test A postemergence, green foxtail; details: 0 to 100 scale
Text: as §1

[18] = tested on: barnyardgrass (Echinochloa crus-galli); test: Test A preemergence, barnyardgrass; details: 0 to 100 scale
Text: as §1

Foxtail, Giant [19] = test: Test A preemergence, giant foxtail; details: 0 to 100 scale
Foxtail, Giant [20] = test: Test A postemergence, giant foxtail; details: 0 to 100 scale

SMILES | Plant response rating, Kochia (kochia (Kochia scoparia) [1]; 125 g ai/ha) | Plant response rating, Barnyardgrass [2] | Plant response rating, Ducksalad [3] | Plant response rating, Barnyardgrass ([4]; 125 g ai/ha) | Plant response rating, Wheat ([5]; 125 g ai/ha) | Plant response rating, Ryegrass, It. ([7]; 125 g ai/ha) | Plant response rating, Kochia (kochia (Kochia scoparia) [8]; 125 g ai/ha) | Plant response rating, Pigweed ([9]; 125 g ai/ha) | Plant response rating, Blackgrass ([10]; 125 g ai/ha) | Plant response rating, Corn (corn (Zea mays); 125 g ai/ha) | Plant response rating, Pigweed ([11]; 125 g ai/ha) | Plant response rating, Ragweed ([12]; 125 g ai/ha) | Plant response rating, Rice (rice (Oryza sativa)) | Plant response rating, Ryegrass, It. ([13]; 125 g ai/ha) | Plant response rating, Galium ([14]; 125 g ai/ha) | Plant response rating, Ragweed ([15]; 125 g ai/ha) | Plant response rating, Sedge, Umbrella [16] | Plant response rating, Barnyardgrass ([18]; 125 g ai/ha) | Plant response rating, Kochia (kochia (Kochia scoparia) [1]; 500 g ai/ha) | Plant response rating, Barnyardgrass ([4]; 500 g ai/ha) | other results
CC(=O)Oc1c(C)nn(C)c(=O)c1C1=C(C)CCc2ccccc21 [Compound 5] | 10 | 0 | 0 | 30 | 0 | 80 | 80 | 100 | 30 | 20 | 100 | 80 | 0 | 70 | 90 | 80 | 0 | 0 |  |  | Plant response rating, Kochia (kochia (Kochia scoparia) [1]; 31 g ai/ha): 0; Plant response rating, Barnyardgrass ([4]; 31 g ai/ha): 20; Plant response rating, Wheat ([5]; 31 g ai/ha): 0; Plant response rating, Foxtail, Green ([6]; 31 g ai/ha): 0; Plant response rating, Foxtail, Green ([6]; 125 g ai/ha): 0; Plant response rating, Ryegrass, It. ([7]; 31 g ai/ha): 70; Plant response rating, Kochia (kochia (Kochia scoparia) [8]; 31 g ai/ha): 70; Plant response rating, Pigweed ([9]; 31 g ai/ha): 70; Plant response rating, Blackgrass ([10]; 31 g ai/ha): 0; Plant response rating, Corn (corn (Zea mays); 31 g ai/ha): 20; Plant response rating, Pigweed ([11]; 31 g ai/ha): 20; Plant response rating, Ragweed ([12]; 31 g ai/ha): 30; Plant response rating, Ryegrass, It. ([13]; 31 g ai/ha): 40; Plant response rating, Galium ([14]; 31 g ai/ha): 90; Plant response rating, Ragweed ([15]; 31 g ai/ha): 20; Plant response rating, Foxtail, Green ([17]; 31 g ai/ha): 20; Plant response rating, Foxtail, Green ([17]; 125 g ai/ha): 40; Plant response rating, Barnyardgrass ([18]; 31 g ai/ha): 20
COc1c(C)nn(C)c(=O)c1C1=CCC(C)(C)c2ccccc21 [Compound 6] | 0 | 0 | 0 | 0 | 0 |  | 0 | 0 | 0 | 0 | 0 | 0 | 0 | 0 | 0 | 0 | 0 | 0 | 40 | 0 | Plant response rating, Wheat ([5]; 500 g ai/ha): 0; Plant response rating, Foxtail, Giant (Foxtail, Giant [19]; 125 g ai/ha): 0; Plant response rating, Foxtail, Giant (Foxtail, Giant [19]; 500 g ai/ha): 0; Plant response rating, Ryegrass, Italian [7]: 0; Plant response rating, Kochia (kochia (Kochia scoparia) [8]; 500 g ai/ha): 0; Plant response rating, Pigweed ([9]; 500 g ai/ha): 0; Plant response rating, Blackgrass ([10]; 500 g ai/ha): 20; Plant response rating, Corn (corn (Zea mays); 500 g ai/ha): 0; Plant response rating, Pigweed ([11]; 500 g ai/ha): 0; Plant response rating, Ragweed ([12]; 500 g ai/ha): 20; Plant response rating, Foxtail, Giant (Foxtail, Giant [20]; 125 g ai/ha): 0; Plant response rating, Foxtail, Giant (Foxtail, Giant [20]; 500 g ai/ha): 0; Plant response rating, Ryegrass, It. ([13]; 500 g ai/ha): 0; Plant response rating, Galium ([14]; 500 g ai/ha): 0; Plant response rating, Ragweed ([15]; 500 g ai/ha): 0; Plant response rating, Barnyardgrass ([18]; 500 g ai/ha): 30
Cc1nn(C)c(=O)c(C2=CCC(C)(C)c3ccccc32)c1O [Compound 7] | 0 | 0 | 0 | 10 | 0 | 30 | 30 | 80 | 10 | 0 | 0 | 0 | 0 | 0 | 50 | 0 | 0 | 0 | 0 | 30 | Plant response rating, Wheat ([5]; 500 g ai/ha): 0; Plant response rating, Foxtail, Giant (Foxtail, Giant [19]; 125 g ai/ha): 0; Plant response rating, Foxtail, Giant (Foxtail, Giant [19]; 500 g ai/ha): 0; Plant response rating, Ryegrass, Italian [7]: 80; Plant response rating, Kochia (kochia (Kochia scoparia) [8]; 500 g ai/ha): 70; Plant response rating, Pigweed ([9]; 500 g ai/ha): 90; Plant response rating, Blackgrass ([10]; 500 g ai/ha): 10; Plant response rating, Corn (corn (Zea mays); 500 g ai/ha): 10; Plant response rating, Pigweed ([11]; 500 g ai/ha): 10; Plant response rating, Ragweed ([12]; 500 g ai/ha): 70; Plant response rating, Foxtail, Giant (Foxtail, Giant [20]; 125 g ai/ha): 0; Plant response rating, Foxtail, Giant (Foxtail, Giant [20]; 500 g ai/ha): 10; Plant response rating, Ryegrass, It. ([13]; 500 g ai/ha): 10; Plant response rating, Galium ([14]; 500 g ai/ha): 70; Plant response rating, Ragweed ([15]; 500 g ai/ha): 0; Plant response rating, Barnyardgrass ([18]; 500 g ai/ha): 0
